Measured values reported in US20240316038A1, “APOL1 INHIBITORS AND METHODS OF USE” (Maze Therapeutics, Inc., priority 2021, published 2024).
pEC50: −log10 of the molar value.

Experiments:
[1] = target: T1, APOL1 G2 (Homo sapiens, UniProt O14791, DEL388-389); assay: Rescue of HEK293 cell death caused by overexpression of APOL1 (CellTiter-Glo luminescence), HEK293/T-REx APOL1 G2/clone #2; type: cell-based; conditions: reversal of cell death caused by overexpression of APOL1; geometric mean of at least 2 assay runs, † = single assay run (technical duplicate)
T1 construct: expressed in transfected cells; host or cells: HEK293 T-REx clonal lines: HEK T-REx/GCaMP6f/APOL1 G2 K6.3 in A1, HEK293/T-REx APOL1 G2/clone #2 in A2
T1 sequence (O14791 with tags, fused parts or gaps DEL388-389): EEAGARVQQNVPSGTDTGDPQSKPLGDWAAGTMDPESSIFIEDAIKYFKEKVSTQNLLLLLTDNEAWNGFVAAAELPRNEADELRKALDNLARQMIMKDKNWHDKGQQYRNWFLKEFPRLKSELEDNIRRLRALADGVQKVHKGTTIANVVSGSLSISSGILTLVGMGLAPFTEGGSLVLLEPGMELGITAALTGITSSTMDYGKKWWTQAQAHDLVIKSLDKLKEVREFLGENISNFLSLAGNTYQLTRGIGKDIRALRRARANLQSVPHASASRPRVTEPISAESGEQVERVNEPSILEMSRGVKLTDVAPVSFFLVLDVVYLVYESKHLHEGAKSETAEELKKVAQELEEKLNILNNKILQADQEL
Outline: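 HEK293/T-REx APOL1 G2 clone #2 cells, 5,000/well, induced with 6 ng/mL doxycycline and exposed to compound (8-point, 3-fold dilutions, 0.5% DMSO) for 17 h at 37 °C. Viability by CellTiter-Glo luminescence; EC50 for reversal of APOL1-induced death from a four-parameter logistic fit, geometric mean of ≥2 runs.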

[2] = target: T1, APOL1 G2; assay: APOL1 calcium transport inhibition assay (GCaMP6f calcium influx, FLIPR) in HEK T-REx/GCaMP6f/APOL1 G2 K6.3 cells; type: cell-based; conditions: inhibition of APOL1-mediated calcium influx; geometric mean of at least 2 assay runs, † = single assay run (technical duplicate)
Outline: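 HEK293 cells stably expressing GCaMP6f, APOL1 G2 induced 6 h with doxycycline (20 ng/mL added), then washed into Ca2+-free Tyrode's buffer pH 7.4. Compounds (8-point dose response) preincubated 10 min at room temperature, then Ca2+ injected to 5 mM final and influx read on FLIPR. AC50 reported as geometric mean of runs.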

C[C@@H]1C[C@H](COc2ccc(S(C)(=O)=O)cc2)CN1CC(O)c1cc(Cl)cc(C#N)c1 (single isomer, unassigned) [Compound 114, 3-chloro-5-[(1S or 1R)-1-hydroxy-2-[(2R,4S)-4-[(4-methanesulfonylphenoxy)methyl]-2-methylpyrrolidin-1-yl]ethyl] benzonitrile]
pEC50 [1]: 6.36 | AC50 [2]: 709 nM

COC1CCN(CCc2cccc(Cl)c2)CC1COc1ccc(S(C)(=O)=O)cc1 (single isomer, unassigned) [Compound 33, rac-trans or cis-1-(3-chlorophenethyl)-4-methoxy-3-((4-(methylsulfonyl)phenoxy)methyl)piperidine]
pEC50 [1]: < 5.06 | AC50 [2]: 10800 nM

CN=S(C)(=O)c1ccc(OC[C@@H]2CN(CCc3cccc(C#N)c3)C[C@H]2C)cc1 (single isomer, unassigned) [Compound 170, 3-{2-[(3S,4S)-3-methyl-4-({4-[(R or S)-methyl(methylimi-no)oxo-λ^6-sulfanyl]phenoxy}methyl)pyrrolidin-1-yl]ethyl}benzonitrile]
pEC50 [1]: 7.12 | AC50 [2]: 37.5 nM

C[C@@H]1CN(CCc2cc(Br)cc(C#N)c2)C[C@H]1COc1ccc(S(C)(=O)=O)cc1 [Compound 196, 3-bromo-5-{2-[(3S,4S)-3-[(4-methanesulfonylphenoxy)methyl]-4-methylpyrrolidin-1-yl]ethyl}benzonitrile]
pEC50 [1]: 6.96 | AC50 [2]: 108 nM

CC(C)(CO)S(=O)(=O)c1ccc(OC[C@@H]2CN(CCc3cc(Cl)cc(C#N)c3)CCN2)cc1 [Compound 183, 3-chloro-5-{2-[(3S)-3-{[4-(1-hydroxy-2-methylpropane-2-sulfonyl)phenoxy]methyl}pi-perazin-1-yl]ethyl}benzo-nitrile]
pEC50 [1]: 6.80 | AC50 [2]: 149 nM

C[C@@H]1C[C@H](COc2ccc(S(C)(=O)=O)cc2)CN1CCc1cc(C#N)cc(C#N)c1 [Compound 132]
pEC50 [1]: 7.36 | AC50 [2]: 510 nM

CS(=O)(=O)c1ccc(OCC2CN(CCc3cccc(Cl)c3)CCC2O)cc1 (single isomer, unassigned) [Compound 31, (3R,4R) or (3S,4S) or (3R,4S) or (3S,4R)-1-(3-chlorophen-ethyl)-3-((4-(methylsulf-onyl)phenoxy)methyl) piperidin-4-ol]
pEC50 [1]: < 5.10 | AC50 [2]: 1020 nM

C[C@H](CNCCc1cccc(Cl)c1)COc1ccc(N(C)S(C)(=O)=O)cc1 [Compound 61, (R)—N-(4-(3-((3-chlorophenethyl)amino)-2-methylpropoxy)phenyl)-N-methylmethanesulfonamide]
pEC50 [1]: 6.03 | AC50 [2]: 376 nM

C[C@H]1CN(CCc2cccc(Cl)c2)C[C@@H]1COc1ccc(S(=O)(=O)CCCS(C)(=O)=O)cc1 (single isomer, unassigned) [Compound 176, (3R,4R or 3S,4S)-1-[2-(3-chlorophenyl)eth-yl]-3-{[4-(3-methanesulfonylpro-panesulfonyl)phe-noxy]methyl}-4-methylpyrrolidine]
pEC50 [1]: > 7.33 | AC50 [2]: 63 nM

CN=S(C)(=O)c1ccc(OC[C@@H]2CN(CCc3cc(Cl)cc(C#N)c3)CCN2)cc1 (stereo partly drawn) [Compound 186, 3-chloro-5-{2-[(3S)-3-({4-[methyl(methyl-imino)oxo-λ^6-sulfanyl]pheno-xy}methyl)pipera-zin-1-yl]ethyl}benzo-nitrile]
pEC50 [1]: 6.20 | AC50 [2]: 6980 nM

C[C@@H]1CN(CCc2cccc(Cl)c2)C[C@H]1COc1ccc(S(=O)(=O)CCS(C)(=O)=O)cc1 [Compound 107, (3S,4S)-1-[2-(3-chlorophenyl)ethy 1]-3-{[4-(2-methanesulfonyl-ethanesulfonyl)phenoxy]methyl}-4-methyl-pyrrolidine]
pEC50 [1]: 7.09 | AC50 [2]: 91.9 nM

C[C@@H]1CN(CC(O)c2cccc(C#N)c2)C[C@H]1COc1ccc(S(C)(=O)=O)cc1 (single isomer, unassigned) [Compound 127, 3-[(1S or 1R)-1-hydroxy-2-[(3S,4S)-3-[(4-methanesulfonylphenoxy)methyl]-4-methylpyrrolidin-1-yl]ethyl] benzonitrile]
pEC50 [1]: < 5.00 | AC50 [2]: 2480 nM

CS(=O)(=O)c1ccc(OCC2CCCCN(CCc3cccc(Cl)c3)C2)cc1 (centres unmarked) [Compound 1, 1-(3-chlorophenethyl)-3-((4-(methylsulfonyl)phenoxy)methyl)azepane]
pEC50 [1]: 6.28 | AC50 [2]: ≤ 253 nM

C[C@@H]1CN(CCc2cccc(Cl)c2)C[C@H]1COc1ccc(N(C)S(C)(=O)=O)cc1 (single isomer, unassigned) [Compound 46, N-(4-(((3S,4S) or (3R,4R)-1-(3-chlorophenethyl)-4-methylpyrrolidin-3-yl)methoxy)phenyl)-N-methylmethanesulfonamide]
pEC50 [1]: 7.68 | AC50 [2]: 90.2 nM

C[C@@H]1CN(CCc2cccc(Cl)c2)C[C@H]1COc1ccc(S(=O)(=O)CCCS(C)(=O)=O)cc1 (single isomer, unassigned) [Compound 177, (3S,4S or 3R,4R)-1-[2-(3-chlorophenyl)eth-yl]-3-{[4-(3-methanesulfonylpro-panesulfonyl)phe-noxy]methyl}-4-methylpyrrolidine]
pEC50 [1]: 5.74 | AC50 [2]: 2860 nM

C[C@@H]1CN(CCc2cccc(C#N)c2)C[C@H]1COc1ccc(S(C)(=O)=O)cc1 [Compound 149, 3-{2-[(3S,4S)-3-[(4-methane-sulfonylphen-oxy)methyl]-4-methylpyrroli-din-1-yl]ethyl}-benzonitrile]
pEC50 [1]: 6.57 | AC50 [2]: 99.8 nM

CN(c1ccc(OC[C@@H](O)CNCCc2cc(Cl)ccc2Cl)cc1)S(C)(=O)=O [Compound 90, (S)-N-(4-(3-((2,5-dichlorophenethyl)amino)-2-hydroxypropoxy)phe-nyl)-N-methylmethanesulfon-amide]
pEC50 [1]: 5.84 | AC50 [2]: 515 nM

N#Cc1cc(Cl)cc(CCN2CCN[C@H](COc3ccc(S(=O)(=O)CCO)cc3)C2)c1 [Compound 182, 3-chloro-5-{2-[(3S)-3-{[4-(2-hydroxyethane-sulfonyl)phenoxy]methyl}pi-perazin-1-yl]ethyl}benzo-nitrile]
pEC50 [1]: 6.40 | AC50 [2]: 396 nM

C[C@@H]1CN(CC(O)c2cccc(Cl)c2)C[C@H]1COc1ccc(S(C)(=O)=O)cc1 (single isomer, unassigned) [Compound 125, (1S or 1R)-1-(3-chlorophenyl)-2-[(3S,4S)-3-[(4-methanesulfonylphenoxy)methyl]-4-methylpyrrolidin-1-yl]ethan-1-ol]
pEC50 [1]: 5.81 | AC50 [2]: 2350 nM

C[C@@H]1CN(CCc2cccc(Cl)c2)C[C@@H]1COc1ccc(S(C)(=O)=O)cc1 (racemic) [Compound 150, rac-cis-1-[2-(3-chlorophenyl)-ethyl]-3-[(4-methanesulfon-ylphenoxy)meth-yl]-4-methyl-pyrrolidine]
pEC50 [1]: 5.83 | AC50 [2]: 721 nM

C[C@@H]1C[C@H](COc2ccc(S(C)(=O)=O)cc2)CN1CC(O)c1cccc(C#N)c1 (single isomer, unassigned) [Compound 117, 3-[(1S or 1R)-1-hydroxy-2-[(2R,4S)-4-[(4-methanesulfonylphenoxy)methyl]-2-methylpyrrolidin-1-yl]ethyl] benzonitrile]
pEC50 [1]: 5.91 | AC50 [2]: 1080 nM

CC1(C)CC(COc2ccc(S(C)(=O)=O)cc2)CN1CCc1cccc(Cl)c1 (single isomer, unassigned) [Compound 43, (S) or (R)-1-(3-chlorophenethyl)-2,2-dimethyl-4-((4-(methylsulfonyl)phenoxy)methyl) pyrrolidine]
pEC50 [1]: 7.51 | AC50 [2]: 237 nM
